pEC50, pIC50: −log10 of the molar value.
What was measured:
[1] = biological target: T1, DDB1DB/DCAF15 and RBM39 R1R2 complex (Homo sapiens, UniProt Q14498+Q66K64); experiment: DCAF15 RBM39 Complex Formation Assay (FRET); assay type: binding; conditions: FRET ratio Em 665/Em 615, incubated overnight at 4° C.
T1 construct: Amino acids 150 to 331 of RBM39 were cloned into pGEX4T3; GST (from vector pGEX4T3); TEV cleavage site (N); made in house; host or cells: DDB1DB/His-DCAF15: baculovirus/Sf9 co-expression; RBM39 R1R2: E. coli (pGEX4T3)
Excerpt: LANCE Eu-W1024 Anti-6×His and SureLight Allophycocyanin-anti-FLAG antibodies were purchased from Perkin Elmer. Human DDB1DB and His-tagged DCAF15 were co-expressed in baculovirus/sf9 system. While full length DDB1 contains three 7-bladed propellers termed A, B, and C, DDB1DB has only propeller A (amino acids 1 to 395) and C (amino acids 709-1140). The His-tagged DCAF15 contains six histidine residues directly preceding the DCAF15 sequence without any linker. An RBM39 fragment containing RRM1 and RRM2 was expressed in E. coli. Amino acids 150 to 331 of RBM39 were cloned into pGEX4T3 with an N-terminal TEV cleavage site and a C-terminal FLAG tag.
A compound of the present disclosure in DMSO (2 μL) was transferred to a 384-well assay plate. Compound was added in 14 points, 3-fold serial dilution (1 μM to 0.6 pico molar) in DMSO. […] FRET assay buffer (25 mM HEPES, pH 7.5, 100 mM NaCl, […], 0.5 mM TCEP, 0.005% Tween-20, 0.2 nM Eu—W1024 Anti-6×His, 50 nM SureLight Allophycocyanin-anti-FLAG, 20 nM DDB1DB/DCAF15, 50 nM RBM39 R1R2) was added and the resulting solution was incubated overnight at 4° C. The plate was placed in a plate reader (Spark 10) with excitation at 1=340 nm and emissions monitored at 1=665 nm and 1=615 nm, and the FRET ratio (Em 665/Em 615) was determined. Low signal controls containing no compound and high signal controls containing 10 mM indisulam were measured for each plate.
EC50 values were calculated using Dotmatics template equation for 4-parameter fit. Results are expressed as % formation using the following equation: […]

[2] = test system: HCT116 human colorectal carcinoma cells; experiment: CellTiter-Glo Luminescent Cell Viability Assay; assay type: cell-based; conditions: HCT-116, 72 h, 3 days
Description: HCT116 human colorectal carcinoma cells were used in these experiments. HCT116 cells were obtained from ATCC. CellTiter-Glo® Luminescent Cell Viability Assay Reagent was obtained from Promega.
About 3,000 cells were seeded into 96-well plate with […] of media (DMEM supplemented with 10% FBS, 100 units penicillin, and […] streptomycin per mL) the day before the experiment. For compound treatment, the master plate was prepared as follows: 100× compound stocks were prepared in a 96-well plate by 1 to 3 serial dilutions of 0.5 mM DMSO stocks. Each master plate contained serial dilution of 8 compounds, including the control compound E7820. […] of 100× compound stock was added to each well of the assay plate to give final concentrations of […]. Each concentration was tested in triplicate. After 3 days, cell viability was determined using CellTiter-Glo Luminescent Cell Viability Assay Reagent following the manufacturer's recommended protocol. Briefly, […] of CellTiter-Glo reagent was added to each well of the assay plate and the contents were mixed for 3 minutes at 600 rpm on a shaker (Thermomixer R). The plate was immediately placed in a plate reader (Synergy 2) and the luminescence signal (0.5 second per well integration time) was determined. IC50 values were calculated using Dotmatics software.

T1 sequence (Q66K64 whole entry, the tested form may be a part): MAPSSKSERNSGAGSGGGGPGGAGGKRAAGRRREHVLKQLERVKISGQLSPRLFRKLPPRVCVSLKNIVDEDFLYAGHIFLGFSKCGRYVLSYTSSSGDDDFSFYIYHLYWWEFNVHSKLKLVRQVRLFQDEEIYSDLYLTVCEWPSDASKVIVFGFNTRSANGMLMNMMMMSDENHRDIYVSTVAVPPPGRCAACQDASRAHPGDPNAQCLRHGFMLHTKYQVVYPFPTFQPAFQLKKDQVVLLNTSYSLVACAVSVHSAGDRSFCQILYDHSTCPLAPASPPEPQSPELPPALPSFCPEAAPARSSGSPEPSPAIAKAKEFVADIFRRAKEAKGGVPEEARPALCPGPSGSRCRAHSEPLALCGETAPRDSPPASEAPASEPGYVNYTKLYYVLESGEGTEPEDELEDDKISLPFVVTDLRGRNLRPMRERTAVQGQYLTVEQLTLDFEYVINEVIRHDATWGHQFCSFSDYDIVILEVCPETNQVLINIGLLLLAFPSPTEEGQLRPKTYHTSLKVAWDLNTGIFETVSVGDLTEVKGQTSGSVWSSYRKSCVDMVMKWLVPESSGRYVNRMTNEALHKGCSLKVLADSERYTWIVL
T1 sequence (Q14498 150-331): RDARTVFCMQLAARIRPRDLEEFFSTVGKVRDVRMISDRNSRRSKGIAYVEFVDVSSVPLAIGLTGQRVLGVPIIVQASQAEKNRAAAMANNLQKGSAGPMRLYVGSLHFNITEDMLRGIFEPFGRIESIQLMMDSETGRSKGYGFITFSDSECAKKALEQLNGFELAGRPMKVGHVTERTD
T1 sequence (Q16531 with tags, fused parts or gaps DEL396-708 partner): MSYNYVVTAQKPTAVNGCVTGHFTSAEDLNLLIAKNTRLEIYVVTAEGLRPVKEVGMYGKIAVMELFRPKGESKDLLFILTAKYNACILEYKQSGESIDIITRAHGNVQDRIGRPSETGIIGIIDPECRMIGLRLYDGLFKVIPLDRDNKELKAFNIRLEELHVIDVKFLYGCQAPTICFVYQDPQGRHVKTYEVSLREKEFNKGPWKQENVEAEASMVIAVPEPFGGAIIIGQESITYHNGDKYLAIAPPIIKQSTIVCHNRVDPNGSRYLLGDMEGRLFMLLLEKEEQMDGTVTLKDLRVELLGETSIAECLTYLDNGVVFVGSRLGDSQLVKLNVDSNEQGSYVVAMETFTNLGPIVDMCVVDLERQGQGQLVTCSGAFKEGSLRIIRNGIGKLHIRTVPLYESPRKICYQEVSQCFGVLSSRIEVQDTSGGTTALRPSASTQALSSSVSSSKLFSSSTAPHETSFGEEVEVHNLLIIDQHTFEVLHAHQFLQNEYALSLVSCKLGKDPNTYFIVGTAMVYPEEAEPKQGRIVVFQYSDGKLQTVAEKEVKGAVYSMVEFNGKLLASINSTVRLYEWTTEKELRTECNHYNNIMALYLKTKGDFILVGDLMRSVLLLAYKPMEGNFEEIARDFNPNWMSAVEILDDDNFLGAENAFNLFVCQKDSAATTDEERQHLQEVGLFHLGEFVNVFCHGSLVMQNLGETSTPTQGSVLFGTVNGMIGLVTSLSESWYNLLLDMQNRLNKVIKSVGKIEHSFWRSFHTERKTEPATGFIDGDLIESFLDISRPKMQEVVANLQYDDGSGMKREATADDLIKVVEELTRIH

Row | pIC50 [1] | pEC50 [2] | Compound
1 | > 6.60 | > 6.60 | CC1(n2cc(S(=O)(=O)Nc3ccc(Cl)c4c(C#N)c[nH]c34)cn2)COC1 [Compound 118, N-(4-chloro-3-cyano-1H-indol-7-yl)-1-(3-methyloxetan-3-yl)pyrazole-4-sulfonamide]
2 | > 6.60 | 6.00 to 6.60 | C[C@H]([C@@H](C)O)n1cc(S(=O)(=O)Nc2ccc(Cl)c3c(C#N)c[nH]c23)cn1 [Compound 286, N-(4-chloro-3-cyano-1H-indol-7-yl)-1-[(1R,2R)-2-hydroxy-1-methyl-propyl]pyrazole-4-sulfonamide]
3 | > 6.60 | 6.00 to 6.60 | CCn1ncc(S(=O)(=O)Nc2ccc(F)c3c(C#N)c[nH]c23)c1N [Compound 272, 5-amino-N-(3-cyano-4-fluoro-1H-indol-7-yl)-1-ethyl-pyrazole-4-sulfonamide]
4 | > 6.60 | 6.00 to 6.60 | CS(=O)(=O)Cn1cc(S(=O)(=O)Nc2ccc(Cl)c3c(C#N)c[nH]c23)cn1 [Compound 182, N-(4-chloro-3-cyano-1H-indol-7-yl)-1-(methylsulfonylmethyl)pyrazole-4-sulfonamide]
5 | 6.00 to 6.60 | < 6.00 | O=S(=O)(Nc1cccc2c(Cl)c[nH]c12)c1cnn(C2CCOCC2)c1 [Compound 20, N-(3-chloro-1H-indol-7-yl)-1-tetrahydropyran-4-yl-pyrazole-4-sulfonamide]
6 | > 6.60 | > 6.60 | Cc1ccc(NS(=O)(=O)c2cnn(CC(F)F)c2)c2[nH]cc(Cl)c12 [Compound 98, N-(3-chloro-4-methyl-1H-indol-7-yl)-1-(2,2-difluoroethyl)pyrazole-4-sulfonamide]
7 | > 6.60 | > 6.60 | Cn1cc(S(=O)(=O)Nc2ccc(Cl)c3c(C#N)c[nH]c23)cn1 [Compound 82, N-(4-chloro-3-cyano-1H-indol-7-yl)-1-methyl-pyrazole-4-sulfonamide]
8 | > 6.60 | 6.00 to 6.60 | Cc1ccc(NS(=O)(=O)c2cnn([C@H]3C[C@@H](O)C3)c2)c2[nH]cc(C#N)c12 [Compound 193, N-(3-cyano-4-methyl-1H-indol-7-yl)-1-(3-hydroxycyclobutyl)pyrazole-4-sulfonamide]
9 | > 6.60 | 6.00 to 6.60 | O=S(=O)(Nc1cccc2c(Cl)c[nH]c12)c1cnn(CC2CC2)c1 [Compound 51, N-(3-chloro-1H-indol-7-yl)-1-(cyclopropylmethyl)pyrazole-4-sulfonamide]
10 | > 6.60 | 6.00 to 6.60 | Cc1ccc(NS(=O)(=O)c2c[nH]nc2N)c2[nH]cc(C#N)c12 [Compound 295, 3-amino-N-(3-cyano-4-methyl-1H-indol-7-yl)-1H-pyrazole-4-sulfonamide]
11 | > 6.60 | < 6.00 | Cc1ccc(NS(=O)(=O)c2cnn(CC(=O)N3CCCC3)c2)c2[nH]cc(C#N)c12 [Compound 142, N-(3-cyano-4-methyl-1H-indol-7-yl)-1-(2-oxo-2-pyrrolidin-1-yl-ethyl)pyrazole-4-sulfonamide]
12 | > 6.60 | > 6.60 | Cc1ccc(NS(=O)(=O)c2cnn(C3COC3)c2)c2[nH]cc(C#N)c12 [Compound 64, N-(3-cyano-4-methyl-1H-indol-7-yl)-1-(oxetan-3-yl)pyrazole-4-sulfonamide]
13 | > 6.60 | 6.00 to 6.60 | N#Cc1c[nH]c2c(NS(=O)(=O)c3cnn(C(F)F)c3N)ccc(F)c12 [Compound 285, 5-amino-N-(3-cyano-4-fluoro-1H-indol-7-yl)-1-(difluoromethyl)pyrazole-4-sulfonamide]
14 | > 6.60 | 6.00 to 6.60 | O=S(=O)(Nc1cccc2c(Cl)c[nH]c12)c1cnn(CC(F)F)c1 [Compound 7, N-(3-chloro-1H-indol-7-yl)-1-(2,2-difluoroethyl)pyrazole-4-sulfonamide]
15 | > 6.60 | < 6.00 | N#Cc1c[nH]c2c(NS(=O)(=O)c3cnn(CF)c3N)cccc12 [Compound 312, 5-amino-N-(3-cyano-1H-indol-7-yl)-1-(fluoromethyl)pyrazole-4-sulfonamide]
16 | > 6.60 | 6.00 to 6.60 | N#Cc1c[nH]c2c(NS(=O)(=O)c3cnn(CC(F)F)c3)ccc(F)c12 [Compound 92, N-(3-cyano-4-fluoro-1H-indol-7-yl)-1-(2,2-difluoroethyl)pyrazole-4-sulfonamide]
17 | > 6.60 | 6.00 to 6.60 | Cn1cc(S(=O)(=O)Nc2ccc(F)c3c(Cl)c[nH]c23)cn1 [Compound 54, N-(3-chloro-4-fluoro-1H-indol-7-yl)-1-methyl-pyrazole-4-sulfonamide]
18 | > 6.60 | > 6.60 | Cc1ccc(NS(=O)(=O)c2cnn(C3(C)COC3)c2)c2[nH]cc(C#N)c12 [Compound 107, N-(3-cyano-4-methyl-1H-indol-7-yl)-1-(3-methyloxetan-3-yl)pyrazole-4-sulfonamide]
19 | > 6.60 | > 6.60 | Cc1ccc(NS(=O)(=O)c2cnn(C3(CO)CC3)c2)c2[nH]cc(C#N)c12 [Compound 268, N-(3-cyano-4-methyl-1H-indol-7-yl)-1-[1-(hydroxymethyl)cyclopropyl]pyrazole-4-sulfonamide]
20 | > 6.60 | 6.00 to 6.60 | N#Cc1c[nH]c2c(NS(=O)(=O)c3cnn(C(CO)(CO)CCl)c3)ccc(Cl)c12 [Compound 164, N-(4-chloro-3-cyano-1H-indol-7-yl)-1-[1-(chloromethyl)-2-hydroxy-1-(hydroxymethyl)ethyl]pyrazole-4-sulfonamide]
21 | > 6.60 | 6.00 to 6.60 | COC(=O)C(C)(C)n1cc(S(=O)(=O)Nc2ccc(Cl)c3c(C#N)c[nH]c23)cn1 [Compound 169, methyl 2-[4-[(4-chloro-3-cyano-1H-indol-7-yl)sulfamoyl]pyrazol-1-yl]-2-methyl-propanoate]
22 | > 6.60 | 6.00 to 6.60 | Cc1ccc(NS(=O)(=O)c2cnn(CC(C)(C)O)c2N)c2[nH]cc(C#N)c12 [Compound 283, 5-amino-N-(3-cyano-4-methyl-1H-indol-7-yl)-1-(2-hydroxy-2-methyl-propyl)pyrazole-4-sulfonamide]
23 | > 6.60 | 6.00 to 6.60 | Cc1ccc(NS(=O)(=O)c2cnn([C@@H](CO)C(F)F)c2)c2[nH]cc(C#N)c12 [Compound 227, N-(3-cyano-4-methyl-1H-indol-7-yl)-1-[(1S)-2,2-difluoro-1-(hydroxymethyl)ethyl]pyrazole-4-sulfonamide]
24 | > 6.60 | 6.00 to 6.60 | C[C@@H](O)[C@H](C)n1cc(S(=O)(=O)Nc2ccc(Cl)c3c(C#N)c[nH]c23)cn1 [Compound 232, N-(4-chloro-3-cyano-1H-indol-7-yl)-1-[(1S,2R)-2-hydroxy-1-methyl-propyl]pyrazole-4-sulfonamide]
25 | > 6.60 | 6.00 to 6.60 | Cc1ccc(NS(=O)(=O)c2cnn(S(=O)(=O)CF)c2)c2[nH]cc(C#N)c12 [Compound 100, N-(3-cyano-4-methyl-1H-indol-7-yl)-1-(fluoromethylsulfonyl)pyrazole-4-sulfonamide]
26 | > 6.60 | < 6.00 | Cn1ncc(S(=O)(=O)Nc2ccc(Cl)c3c(C#N)n[nH]c23)c1N [Compound 307, 5-amino-N-(4-chloro-3-cyano-1H-indazol-7-yl)-1-methyl-pyrazole-4-sulfonamide]
27 | > 6.60 | 6.00 to 6.60 | N#Cc1c[nH]c2c(NS(=O)(=O)c3cnn(C(F)CO)c3)ccc(F)c12 (centres unmarked) [Compound 298, N-(3-cyano-4-fluoro-1H-indol-7-yl)-1-(1-fluoro-2-hydroxy-ethyl)pyrazole-4-sulfonamide]
28 | > 6.60 | 6.00 to 6.60 | Cc1ccc(NS(=O)(=O)c2cnn(CC(C)(C)C#N)c2)c2[nH]cc(C#N)c12 [Compound 76, N-(3-cyano-4-methyl-1H-indol-7-yl)-1-(2-cyano-2-methyl-propyl)pyrazole-4-sulfonamide]

Source: patent US20250368627A1, “PYRAZOLESULFONAMIDES AS ANTITUMOR AGENTS” (Peloton Therapeutics, Inc., a fully owned subsidiary of …, priority 2019, published 2025)
